Measurements reported in ChEMBL document CHEMBL1135504, “Structure-activity relationships of the melanocortin tetrapeptide Ac-His-DPhe-Arg-Trp-NH(2) at the mouse melanocortin receptors: part 2 modifications at the Phe position” (J Med Chem, 2002).
pEC50, pKi: −log10 of the molar value. Where a SMILES comes first, the peptide text is derived from it.

Legend:
[1] = biological target: Melanocyte-stimulating hormone receptor (Mus musculus, UniProt Q01727); experiment: Agonist activity to the mouse Melanocortin-1 receptor (mMC1R); assay type: functional
Chain of Melanocyte-stimulating hormone receptor (Q01727 whole entry): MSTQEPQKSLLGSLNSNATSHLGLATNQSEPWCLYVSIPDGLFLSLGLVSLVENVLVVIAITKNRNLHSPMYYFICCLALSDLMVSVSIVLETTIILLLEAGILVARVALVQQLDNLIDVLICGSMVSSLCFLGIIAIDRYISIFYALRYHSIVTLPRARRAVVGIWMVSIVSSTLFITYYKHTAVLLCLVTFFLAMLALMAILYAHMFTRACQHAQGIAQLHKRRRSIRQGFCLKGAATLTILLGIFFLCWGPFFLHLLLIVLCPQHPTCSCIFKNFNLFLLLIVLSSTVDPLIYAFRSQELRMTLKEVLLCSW

[2] = biological target: T1, Melanocortin receptor 3 (Mus musculus, UniProt P33033); experiment: Agonist activity to the mouse Melanocortin-3 receptor (mMC3R); assay type: functional
T1 sequence (P33033 whole entry): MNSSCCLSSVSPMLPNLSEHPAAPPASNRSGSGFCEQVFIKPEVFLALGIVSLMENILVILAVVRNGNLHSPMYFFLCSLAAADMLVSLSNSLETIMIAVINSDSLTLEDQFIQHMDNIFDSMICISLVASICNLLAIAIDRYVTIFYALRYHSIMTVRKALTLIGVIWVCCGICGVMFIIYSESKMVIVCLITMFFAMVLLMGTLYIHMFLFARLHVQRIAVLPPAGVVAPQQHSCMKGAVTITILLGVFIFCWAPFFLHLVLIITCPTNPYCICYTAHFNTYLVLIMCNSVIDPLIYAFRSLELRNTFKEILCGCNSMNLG

[3] = biological target: Melanocortin receptor 4 (Mus musculus, UniProt P56450); experiment: Agonist activity to the mouse Melanocortin-4 receptor (mMC4R); assay type: functional
Chain of Melanocortin receptor 4 (P56450 whole entry): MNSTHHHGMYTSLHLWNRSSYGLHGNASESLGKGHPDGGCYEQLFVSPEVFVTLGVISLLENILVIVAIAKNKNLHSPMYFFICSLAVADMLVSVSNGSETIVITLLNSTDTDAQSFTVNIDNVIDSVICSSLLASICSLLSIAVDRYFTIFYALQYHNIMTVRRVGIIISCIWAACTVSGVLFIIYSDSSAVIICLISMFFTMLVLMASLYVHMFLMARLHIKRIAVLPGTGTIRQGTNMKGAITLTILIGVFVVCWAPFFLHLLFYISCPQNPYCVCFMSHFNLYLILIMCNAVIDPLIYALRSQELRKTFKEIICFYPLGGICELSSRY

[4] = biological target: Melanocortin receptor 5 (Mus musculus, UniProt P41149); experiment: Agonist activity towards mouse Melanocortin-5 receptor (mMC5R); assay type: functional
Chain of Melanocortin receptor 5 (P41149 whole entry): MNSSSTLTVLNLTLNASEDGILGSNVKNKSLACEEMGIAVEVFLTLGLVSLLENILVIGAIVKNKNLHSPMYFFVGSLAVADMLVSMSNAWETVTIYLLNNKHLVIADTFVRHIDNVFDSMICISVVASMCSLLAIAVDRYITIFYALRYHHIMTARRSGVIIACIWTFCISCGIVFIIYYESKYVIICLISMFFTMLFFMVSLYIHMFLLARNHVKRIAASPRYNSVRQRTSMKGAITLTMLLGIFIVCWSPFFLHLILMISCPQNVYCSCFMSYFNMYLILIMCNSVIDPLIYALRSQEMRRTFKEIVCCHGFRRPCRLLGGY

[5] = biological target: T1, Melanocortin receptor 3; experiment: Agonist activity of compound towards mouse Melanocortin-3 receptor (mMC3R); partial agonist; assay type: functional; conditions: read-out: pA2 (converted)
[6] = biological target: T1, Melanocortin receptor 3; experiment: Binding constant (Ki) at mouse Melanocortin-3 receptor

pEC50 [1]	pEC50 [2]	pEC50 [3]	pEC50 [4]	Kb [5] [µM]	pKi [6]	SMILES
4.27	< 4.00	< 4.00	4.67	–	–	CC(=O)N[C@@H](Cc1c[nH]cn1)C(=O)N1Cc2ccccc2C[C@H]1C(=O)N[C@@H](CCCN=C(N)N)C(=O)N[C@@H](Cc1c[nH]c2ccccc12)C(N)=O
4.66	< 4.00	–	5.13	–	–	CC(=O)N[C@@H](Cc1c[nH]cn1)C(=O)N[C@@H](Cc1ccc2ccccc2c1)C(=O)N[C@@H](CCCN=C(N)N)C(=O)N[C@@H](Cc1c[nH]c2ccccc12)C(N)=O
4.48	< 4.00	< 4.00	4.93	–	–	CC(=O)N[C@@H](Cc1c[nH]cn1)C(=O)N[C@@H](CCc1ccccc1)C(=O)N[C@@H](CCCN=C(N)N)C(=O)N[C@@H](Cc1c[nH]c2ccccc12)C(N)=O
4.77	< 4.00	< 4.00	–	–	–	CC(=O)N[C@@H](Cc1c[nH]cn1)C(=O)N[C@@H](C(=O)N[C@@H](CCCN=C(N)N)C(=O)N[C@@H](Cc1c[nH]c2ccccc12)C(N)=O)c1ccccc1
4.44	< 4.00	4.61	5.01	–	–	CC(=O)N[C@@H](Cc1cnc[nH]1)C(=O)N[C@@H](Cc1ccncc1)C(=O)N[C@@H](CCCNC(=N)N)C(=O)N[C@@H](Cc1c[nH]c2ccccc12)C(N)=O
6.45	5.39	6.52	7.29	–	–	CC(=O)N[C@@H](Cc1cnc[nH]1)C(=O)N[C@H](Cc1cccc2ccccc12)C(=O)N[C@@H](CCCNC(=N)N)C(=O)N[C@@H](Cc1c[nH]c2ccccc12)C(N)=O
4.52	< 4.00	< 4.00	< 4.00	–	–	CC(=O)N[C@@H](Cc1cnc[nH]1)C(=O)N[C@@H](C)C(=O)N[C@@H](CCCNC(=N)N)C(=O)N[C@@H](Cc1c[nH]c2ccccc12)C(N)=O (Ac-HARW-NH2)
4.72	< 4.00	< 4.00	< 4.00	–	–	CC(=O)N[C@@H](Cc1cnc[nH]1)C(=O)N[C@H](C(=O)N[C@@H](CCCNC(=N)N)C(=O)N[C@@H](Cc1c[nH]c2ccccc12)C(N)=O)C(c1ccccc1)c1ccccc1
4.39	< 4.00	< 4.00	< 4.00	–	–	CC(=O)N[C@@H](Cc1c[nH]cn1)C(=O)N1Cc2ccccc2C[C@@H]1C(=O)N[C@@H](CCCN=C(N)N)C(=O)N[C@@H](Cc1c[nH]c2ccccc12)C(N)=O
4.38	< 4.00	< 4.00	4.39	–	–	CC(=O)N[C@@H](Cc1c[nH]cn1)C(=O)N[C@@H](Cc1c[nH]cn1)C(=O)N[C@@H](CCCN=C(N)N)C(=O)N[C@@H](Cc1c[nH]c2ccccc12)C(N)=O (Ac-HHRW-NH2)
–	–	8.68	–	–	–	CC(=O)N[C@@H](Cc1c[nH]cn1)C(=O)N[C@@H](Cc1ccccc1)C(=O)N[C@@H](CCCN=C(N)N)C(=O)N[C@@H](Cc1c[nH]c2ccccc12)C(N)=O
5.82	< 4.00	5.30	5.37	–	–	CC(=O)N[C@@H](Cc1c[nH]cn1)C(=O)N[C@@H](C(=O)N[C@@H](CCCN=C(N)N)C(=O)N[C@@H](Cc1c[nH]c2ccccc12)C(N)=O)C(c1ccccc1)c1ccccc1
5.49	4.47	5.62	6.20	–	–	CC(=O)N[C@@H](Cc1cnc[nH]1)C(=O)N[C@H](Cc1ccc(O)cc1)C(=O)N[C@@H](CCCNC(=N)N)C(=O)N[C@@H](Cc1c[nH]c2ccccc12)C(N)=O
4.82	< 4.00	< 4.00	4.95	–	–	CC(=O)N[C@@H](Cc1cnc[nH]1)C(=O)N[C@@H](Cc1cccc2ccccc12)C(=O)N[C@@H](CCCNC(=N)N)C(=O)N[C@@H](Cc1c[nH]c2ccccc12)C(N)=O
4.83	4.36	4.39	5.40	–	–	CC(=O)N[C@@H](Cc1cnc[nH]1)C(=O)N[C@H](C(=O)N[C@@H](CCCNC(=N)N)C(=O)N[C@@H](Cc1c[nH]c2ccccc12)C(N)=O)c1ccccc1
4.21	< 4.00	< 4.00	4.49	–	–	CC(=O)N[C@@H](Cc1cnc[nH]1)C(=O)N[C@@H](Cc1ccc(O)cc1)C(=O)N[C@@H](CCCNC(=N)N)C(=O)N[C@@H](Cc1c[nH]c2ccccc12)C(N)=O (Ac-HYRW-NH2)
4.60	< 4.00	< 4.00	5.16	–	–	CC(=O)N[C@@H](Cc1c[nH]cn1)C(=O)N[C@H](Cc1c[nH]c2ccccc12)C(=O)N[C@@H](CCCN=C(N)N)C(=O)N[C@@H](Cc1c[nH]c2ccccc12)C(N)=O
4.97	< 4.00	–	5.26	–	–	CC(=O)N[C@@H](Cc1cnc[nH]1)C(=O)N[C@@H](Cc1ccc(-c2ccccc2)cc1)C(=O)N[C@@H](CCCNC(=N)N)C(=O)N[C@@H](Cc1c[nH]c2ccccc12)C(N)=O
5.63	5.00	5.75	6.58	–	–	CC(=O)N[C@@H](Cc1c[nH]cn1)C(=O)NC1(C(=O)N[C@@H](CCCN=C(N)N)C(=O)N[C@@H](Cc2c[nH]c3ccccc23)C(N)=O)CCc2ccccc2C1 (stereo in doubt; 25)
5.24	5.11	5.15	5.68	–	–	CC(=O)N[C@@H](Cc1c[nH]cn1)C(=O)NC1(C(=O)N[C@@H](CCCN=C(N)N)C(=O)N[C@@H](Cc2c[nH]c3ccccc23)C(N)=O)CCc2ccccc2C1 (stereo in doubt; 26)
5.20	< 4.00	4.95	5.55	–	–	CC(=O)N[C@@H](Cc1cnc[nH]1)C(=O)N[C@H](CCc1ccccc1)C(=O)N[C@@H](CCCNC(=N)N)C(=O)N[C@@H](Cc1c[nH]c2ccccc12)C(N)=O
7.55	5.69	7.16	7.94	–	–	CC(=O)N[C@@H](Cc1c[nH]cn1)C(=O)N[C@H](Cc1ccc(-c2ccccc2)cc1)C(=O)N[C@@H](CCCN=C(N)N)C(=O)N[C@@H](Cc1c[nH]c2ccccc12)C(N)=O
4.48	< 4.00	4.46	4.74	–	–	CC(=O)N[C@@H](Cc1cnc[nH]1)C(=O)N[C@@H](Cc1c[nH]c2ccccc12)C(=O)N[C@@H](CCCNC(=N)N)C(=O)N[C@@H](Cc1c[nH]c2ccccc12)C(N)=O
6.78	–	–	7.46	0.295	6.53	CC(=O)N[C@@H](Cc1cnc[nH]1)C(=O)N[C@H](Cc1ccc2ccccc2c1)C(=O)N[C@@H](CCCNC(=N)N)C(=O)N[C@@H](Cc1c[nH]c2ccccc12)C(N)=O
4.64	< 4.00	< 4.00	4.44	–	–	CC(=O)N[C@@H](Cc1cnc[nH]1)C(=O)N[C@@H](Cc1cccnc1)C(=O)N[C@@H](CCCNC(=N)N)C(=O)N[C@@H](Cc1c[nH]c2ccccc12)C(N)=O
